Like-named read-outs stand apart in the source and are kept apart here.
Assay: acid dissociation constant (pKa) by conventional titration

| Compound | pKa | pKa (acid dissociation constant of hindered amine light stabilizer) |
| --- | --- | --- |
| CCCCCCCCON1C(C)(C)CC(OC(=O)CCCCCCCCC(=O)OC2CC(C)(C)N(OCCCCCCCC)C(C)(C)C2)CC1(C)C [Example D-4, Bis(1-octyloxy-2,2,6,6-tetramethylpiperidin-4-yl) sebacate] | 4.4 | – |
| CC1(C)CC(OC(=O)CCCCCCCCC(=O)OC2CC(C)(C)NC(C)(C)C2)CC(C)(C)N1 [Example D-3, Bis(2,2,6,6-tetramethyl-4-piperidyl) sebacate] | 9 | – |
| CN1C(C)(C)CC(OC(=O)CC(C(=O)OC2CC(C)(C)N(C)C(C)(C)C2)C(CC(=O)OC2CC(C)(C)N(C)C(C)(C)C2)C(=O)OC2CC(C)(C)N(C)C(C)(C)C2)CC1(C)C [Example D-2, tetrakis(1,2,2,6,6-pentamethyl-4-piperidyl) 1,2,3,4-butanetetracarboxylate] | 8.9 | – |
| Condensate of N,N-bis(3-aminopropyl)ethylenediamine. 2,4-bis[N-butyl-N-(1,2,2,6,6-pentamethyl-4-pi peridyl)amino]-6-chloro-1,3,5-triazine [Example D-5] | – | 9.2 |
